# According to ChEMBL document CHEMBL4507319 (2021):
# Tests used:
# [1] = biological target: Serine/threonine-protein kinase LATS1 (Homo sapiens) (UniProt O95835); details: Compound concentration 1000.0 nM
# [2] = biological target: T1, Serine/threonine-protein kinase ULK1 (Homo sapiens) (UniProt O75385); details: Compound concentration 1000.0 nM
# T1 sequence (whole entry): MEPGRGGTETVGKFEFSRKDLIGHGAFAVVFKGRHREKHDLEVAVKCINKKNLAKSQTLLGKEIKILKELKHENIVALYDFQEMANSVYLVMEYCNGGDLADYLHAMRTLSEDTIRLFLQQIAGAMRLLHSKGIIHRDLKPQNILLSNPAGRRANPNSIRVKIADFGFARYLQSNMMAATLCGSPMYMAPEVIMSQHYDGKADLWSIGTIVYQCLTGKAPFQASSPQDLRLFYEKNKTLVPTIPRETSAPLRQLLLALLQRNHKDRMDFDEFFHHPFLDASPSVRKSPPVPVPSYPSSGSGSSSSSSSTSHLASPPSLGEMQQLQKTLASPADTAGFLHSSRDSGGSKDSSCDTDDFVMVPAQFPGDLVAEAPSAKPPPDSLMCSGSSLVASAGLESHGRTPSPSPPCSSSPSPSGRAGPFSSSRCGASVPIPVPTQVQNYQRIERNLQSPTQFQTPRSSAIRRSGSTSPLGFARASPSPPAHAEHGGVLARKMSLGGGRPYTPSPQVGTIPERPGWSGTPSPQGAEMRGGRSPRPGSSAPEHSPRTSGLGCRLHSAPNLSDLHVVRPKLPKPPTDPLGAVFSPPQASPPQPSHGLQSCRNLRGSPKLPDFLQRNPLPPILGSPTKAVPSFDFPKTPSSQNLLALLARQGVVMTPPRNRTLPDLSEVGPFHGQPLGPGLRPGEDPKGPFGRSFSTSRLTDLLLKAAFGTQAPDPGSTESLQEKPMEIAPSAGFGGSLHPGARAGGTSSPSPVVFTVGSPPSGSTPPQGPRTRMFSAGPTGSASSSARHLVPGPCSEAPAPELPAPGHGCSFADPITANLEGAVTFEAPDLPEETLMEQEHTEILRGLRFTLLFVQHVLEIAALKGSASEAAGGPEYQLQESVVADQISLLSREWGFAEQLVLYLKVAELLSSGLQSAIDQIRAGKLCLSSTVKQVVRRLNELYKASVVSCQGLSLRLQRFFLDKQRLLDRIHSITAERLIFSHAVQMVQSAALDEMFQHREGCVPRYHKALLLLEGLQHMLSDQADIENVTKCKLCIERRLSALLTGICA
# [3] = biological target: Protein-tyrosine kinase 6 (Homo sapiens) (UniProt Q13882); details: Compound concentration 1000.0 nM
# Protein-tyrosine kinase 6 (Homo sapiens), sequence (Q13882 whole entry, looked up): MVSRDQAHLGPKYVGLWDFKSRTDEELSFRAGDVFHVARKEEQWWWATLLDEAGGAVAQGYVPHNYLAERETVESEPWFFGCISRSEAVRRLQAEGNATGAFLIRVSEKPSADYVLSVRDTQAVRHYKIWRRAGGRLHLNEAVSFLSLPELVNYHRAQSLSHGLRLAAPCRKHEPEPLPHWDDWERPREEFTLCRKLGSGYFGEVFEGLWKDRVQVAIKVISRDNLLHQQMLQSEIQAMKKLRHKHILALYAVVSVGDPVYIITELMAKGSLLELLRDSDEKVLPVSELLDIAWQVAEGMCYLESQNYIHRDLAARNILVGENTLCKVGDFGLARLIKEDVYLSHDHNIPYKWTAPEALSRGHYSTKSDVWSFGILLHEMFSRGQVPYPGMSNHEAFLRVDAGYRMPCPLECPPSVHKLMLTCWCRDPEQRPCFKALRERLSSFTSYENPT
# [4] = tested on: Epidermal growth factor receptor (Homo sapiens), P00533 [UNDEFINED MUTATION]; details: Compound concentration 1000.0 nM
# [5] = biological target: Transient receptor potential cation channel subfamily M member 6 (Homo sapiens) (UniProt Q9BX84); details: Compound concentration 1000.0 nM
# [6] = biological target: Cyclin-dependent kinase 19 (Homo sapiens) (UniProt Q9BWU1); details: Compound concentration 1000.0 nM
# Cyclin-dependent kinase 19 (Homo sapiens), sequence (Q9BWU1 whole entry): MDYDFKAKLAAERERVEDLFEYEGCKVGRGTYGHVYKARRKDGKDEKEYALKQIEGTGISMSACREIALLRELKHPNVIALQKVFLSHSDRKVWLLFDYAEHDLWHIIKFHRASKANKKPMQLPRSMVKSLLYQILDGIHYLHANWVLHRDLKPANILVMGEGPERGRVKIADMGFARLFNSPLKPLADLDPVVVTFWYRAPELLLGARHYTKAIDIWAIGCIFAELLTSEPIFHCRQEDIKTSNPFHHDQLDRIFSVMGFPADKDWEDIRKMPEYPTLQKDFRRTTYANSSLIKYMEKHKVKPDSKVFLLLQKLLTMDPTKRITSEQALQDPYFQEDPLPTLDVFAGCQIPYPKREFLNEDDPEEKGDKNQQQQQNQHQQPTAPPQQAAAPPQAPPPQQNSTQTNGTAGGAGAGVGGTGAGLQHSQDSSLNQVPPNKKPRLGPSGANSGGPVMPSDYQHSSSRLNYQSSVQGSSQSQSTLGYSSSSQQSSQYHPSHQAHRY
# [7] = biological target: Microtubule-associated serine/threonine-protein kinase 1 (Homo sapiens) (UniProt Q9Y2H9); details: Compound concentration 1000.0 nM
# Microtubule-associated serine/threonine-protein kinase 1 (Homo sapiens), sequence (Q9Y2H9 whole entry, looked up): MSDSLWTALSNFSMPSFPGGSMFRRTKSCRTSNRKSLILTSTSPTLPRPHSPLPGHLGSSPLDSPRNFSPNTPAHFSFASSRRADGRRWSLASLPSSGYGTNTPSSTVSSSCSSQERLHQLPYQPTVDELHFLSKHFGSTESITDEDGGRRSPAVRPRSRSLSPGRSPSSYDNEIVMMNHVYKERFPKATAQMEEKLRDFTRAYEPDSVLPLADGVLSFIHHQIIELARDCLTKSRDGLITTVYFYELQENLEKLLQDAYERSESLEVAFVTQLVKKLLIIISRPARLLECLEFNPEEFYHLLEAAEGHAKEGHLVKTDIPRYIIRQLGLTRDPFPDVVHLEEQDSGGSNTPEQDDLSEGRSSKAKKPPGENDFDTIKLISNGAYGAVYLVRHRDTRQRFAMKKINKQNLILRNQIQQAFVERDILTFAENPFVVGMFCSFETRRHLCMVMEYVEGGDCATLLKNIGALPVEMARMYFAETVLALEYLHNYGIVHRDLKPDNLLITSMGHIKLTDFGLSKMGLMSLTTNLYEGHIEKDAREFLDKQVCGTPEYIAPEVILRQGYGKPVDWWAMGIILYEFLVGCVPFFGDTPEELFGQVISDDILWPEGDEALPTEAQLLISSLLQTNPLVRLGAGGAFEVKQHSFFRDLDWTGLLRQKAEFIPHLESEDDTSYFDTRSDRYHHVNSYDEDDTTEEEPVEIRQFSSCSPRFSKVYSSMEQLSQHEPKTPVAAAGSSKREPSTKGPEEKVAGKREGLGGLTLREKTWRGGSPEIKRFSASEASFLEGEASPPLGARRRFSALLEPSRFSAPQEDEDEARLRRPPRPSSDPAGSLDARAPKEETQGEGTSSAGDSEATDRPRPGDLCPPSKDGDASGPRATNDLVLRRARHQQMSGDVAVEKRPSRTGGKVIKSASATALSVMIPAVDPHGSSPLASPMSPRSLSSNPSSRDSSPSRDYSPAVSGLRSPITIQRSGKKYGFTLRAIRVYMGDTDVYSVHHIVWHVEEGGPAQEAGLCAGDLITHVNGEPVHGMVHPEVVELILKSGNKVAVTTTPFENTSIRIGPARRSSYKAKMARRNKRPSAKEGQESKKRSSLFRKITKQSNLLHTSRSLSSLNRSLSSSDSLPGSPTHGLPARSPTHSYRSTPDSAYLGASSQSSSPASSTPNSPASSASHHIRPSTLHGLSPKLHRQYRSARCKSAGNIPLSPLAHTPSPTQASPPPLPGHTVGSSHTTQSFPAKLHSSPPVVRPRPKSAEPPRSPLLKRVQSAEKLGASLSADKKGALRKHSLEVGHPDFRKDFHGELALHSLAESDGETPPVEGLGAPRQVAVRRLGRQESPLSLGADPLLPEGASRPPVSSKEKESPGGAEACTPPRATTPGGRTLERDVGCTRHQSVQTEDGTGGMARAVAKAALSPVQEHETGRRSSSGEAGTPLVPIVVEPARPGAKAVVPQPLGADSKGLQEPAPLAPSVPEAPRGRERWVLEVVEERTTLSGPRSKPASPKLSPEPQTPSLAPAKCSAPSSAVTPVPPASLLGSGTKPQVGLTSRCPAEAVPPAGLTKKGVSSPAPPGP
# [8] = tested on: Mast/stem cell growth factor receptor Kit (Homo sapiens), P10721 [D816H]; details: Compound concentration 1000.0 nM
# Mast/stem cell growth factor receptor Kit (Homo sapiens), P10721 [D816H], sequence (P10721 whole entry D816H): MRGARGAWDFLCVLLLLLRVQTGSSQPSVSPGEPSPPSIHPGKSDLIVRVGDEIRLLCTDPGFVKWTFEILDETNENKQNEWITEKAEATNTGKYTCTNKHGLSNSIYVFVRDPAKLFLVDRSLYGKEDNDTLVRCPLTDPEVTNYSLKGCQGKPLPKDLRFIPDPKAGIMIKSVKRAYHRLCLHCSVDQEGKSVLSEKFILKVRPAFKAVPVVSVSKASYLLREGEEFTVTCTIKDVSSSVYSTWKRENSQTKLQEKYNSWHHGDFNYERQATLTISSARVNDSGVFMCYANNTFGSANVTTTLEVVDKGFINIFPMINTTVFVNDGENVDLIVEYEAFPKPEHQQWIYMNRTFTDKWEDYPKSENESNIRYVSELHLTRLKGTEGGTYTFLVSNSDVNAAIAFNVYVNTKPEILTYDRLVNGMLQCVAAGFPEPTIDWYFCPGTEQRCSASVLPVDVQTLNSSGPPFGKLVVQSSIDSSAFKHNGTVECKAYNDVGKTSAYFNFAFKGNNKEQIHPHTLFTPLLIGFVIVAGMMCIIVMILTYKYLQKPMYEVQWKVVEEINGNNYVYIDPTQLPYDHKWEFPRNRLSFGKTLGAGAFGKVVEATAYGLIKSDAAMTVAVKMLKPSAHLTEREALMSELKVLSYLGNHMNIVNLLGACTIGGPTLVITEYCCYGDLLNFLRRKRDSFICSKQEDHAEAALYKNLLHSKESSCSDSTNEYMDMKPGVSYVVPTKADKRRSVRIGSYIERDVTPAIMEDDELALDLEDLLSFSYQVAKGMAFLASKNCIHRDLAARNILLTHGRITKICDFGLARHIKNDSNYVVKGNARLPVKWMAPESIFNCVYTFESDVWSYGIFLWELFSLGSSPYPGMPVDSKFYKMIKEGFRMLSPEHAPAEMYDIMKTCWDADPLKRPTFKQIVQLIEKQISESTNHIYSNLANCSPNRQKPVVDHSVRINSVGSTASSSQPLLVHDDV
# [9] = biological target: Ribosomal protein S6 kinase alpha-4 (Homo sapiens) (UniProt O75676); details: Compound concentration 1000.0 nM
# [10] = tested on: Phosphatidylinositol 4,5-bisphosphate 3-kinase catalytic subunit alpha isoform (Homo sapiens), P42336 [I800L]; details: Compound concentration 1000.0 nM
# [11] = tested on: Hepatocyte growth factor receptor (Homo sapiens), P08581 [M1250T]; details: Compound concentration 1000.0 nM
# [12] = biological target: Serine/threonine-protein kinase Chk2 (Homo sapiens) (UniProt O96017); details: Compound concentration 1000.0 nM
# Serine/threonine-protein kinase Chk2 (Homo sapiens), sequence (O96017 whole entry): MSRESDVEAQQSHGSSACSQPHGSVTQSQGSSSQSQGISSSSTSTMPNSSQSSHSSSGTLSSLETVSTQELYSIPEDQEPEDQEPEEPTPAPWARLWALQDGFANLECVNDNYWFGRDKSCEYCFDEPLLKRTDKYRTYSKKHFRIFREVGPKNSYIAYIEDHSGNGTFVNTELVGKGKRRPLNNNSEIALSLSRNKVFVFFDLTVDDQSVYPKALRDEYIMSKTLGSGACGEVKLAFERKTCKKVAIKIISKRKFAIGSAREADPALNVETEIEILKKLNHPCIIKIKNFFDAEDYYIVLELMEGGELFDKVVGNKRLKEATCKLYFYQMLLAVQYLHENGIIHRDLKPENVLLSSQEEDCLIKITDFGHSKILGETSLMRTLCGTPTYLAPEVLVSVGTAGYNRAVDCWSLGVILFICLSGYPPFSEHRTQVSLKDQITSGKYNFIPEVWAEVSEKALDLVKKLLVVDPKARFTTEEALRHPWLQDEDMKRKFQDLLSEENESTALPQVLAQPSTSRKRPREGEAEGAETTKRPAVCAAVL
# [13] = biological target: Muscarinic acetylcholine receptor M4 (Homo sapiens) (UniProt P08173); details: Compound concentration 10.0 uM
# [14] = biological target: RAC-gamma serine/threonine-protein kinase (Homo sapiens) (UniProt Q9Y243); details: Compound concentration 1000.0 nM
# RAC-gamma serine/threonine-protein kinase (Homo sapiens), sequence (Q9Y243 whole entry): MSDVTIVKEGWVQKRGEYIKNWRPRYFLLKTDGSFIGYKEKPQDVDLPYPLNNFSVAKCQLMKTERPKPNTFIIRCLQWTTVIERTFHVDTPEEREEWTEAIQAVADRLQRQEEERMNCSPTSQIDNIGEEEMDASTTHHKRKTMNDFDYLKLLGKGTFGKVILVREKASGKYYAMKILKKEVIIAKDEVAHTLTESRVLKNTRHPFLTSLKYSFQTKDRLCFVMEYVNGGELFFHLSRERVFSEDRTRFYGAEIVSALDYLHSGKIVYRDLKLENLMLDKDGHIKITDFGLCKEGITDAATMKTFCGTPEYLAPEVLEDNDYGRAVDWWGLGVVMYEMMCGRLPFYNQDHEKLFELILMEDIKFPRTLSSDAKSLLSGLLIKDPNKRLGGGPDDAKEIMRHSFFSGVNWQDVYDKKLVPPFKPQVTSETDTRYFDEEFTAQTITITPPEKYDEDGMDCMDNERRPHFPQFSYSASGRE
# [15] = biological target: Serine/threonine-protein kinase 38-like (Homo sapiens) (UniProt Q9Y2H1); details: Compound concentration 1000.0 nM
# Serine/threonine-protein kinase 38-like (Homo sapiens), sequence (Q9Y2H1 2-464 limits assumed): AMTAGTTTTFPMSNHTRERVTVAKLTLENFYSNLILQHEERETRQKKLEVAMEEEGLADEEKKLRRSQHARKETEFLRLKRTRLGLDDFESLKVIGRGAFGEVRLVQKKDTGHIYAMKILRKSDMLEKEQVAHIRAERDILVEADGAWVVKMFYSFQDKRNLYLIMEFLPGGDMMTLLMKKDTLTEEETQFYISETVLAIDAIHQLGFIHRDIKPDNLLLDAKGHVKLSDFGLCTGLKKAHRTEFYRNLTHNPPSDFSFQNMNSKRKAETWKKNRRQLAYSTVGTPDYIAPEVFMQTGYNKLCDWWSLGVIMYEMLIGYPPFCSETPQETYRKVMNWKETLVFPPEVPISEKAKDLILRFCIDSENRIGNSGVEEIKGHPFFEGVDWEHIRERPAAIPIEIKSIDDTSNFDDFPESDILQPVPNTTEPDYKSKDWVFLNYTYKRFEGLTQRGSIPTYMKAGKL
# [16] = biological target: 5'-AMP-activated protein kinase catalytic subunit alpha-1 (Homo sapiens, UniProt Q13131); details: Compound concentration 1000.0 nM
# [17] = biological target: RAF proto-oncogene serine/threonine-protein kinase (Homo sapiens) (UniProt P04049); details: Compound concentration 1000.0 nM
# [18] = biological target: Aurora kinase C (Homo sapiens) (UniProt Q9UQB9); details: Compound concentration 1000.0 nM
# [19] = biological target: T2, Muscle, skeletal receptor tyrosine-protein kinase (Homo sapiens) (UniProt O15146); details: Compound concentration 1000.0 nM
# T2 sequence (whole entry): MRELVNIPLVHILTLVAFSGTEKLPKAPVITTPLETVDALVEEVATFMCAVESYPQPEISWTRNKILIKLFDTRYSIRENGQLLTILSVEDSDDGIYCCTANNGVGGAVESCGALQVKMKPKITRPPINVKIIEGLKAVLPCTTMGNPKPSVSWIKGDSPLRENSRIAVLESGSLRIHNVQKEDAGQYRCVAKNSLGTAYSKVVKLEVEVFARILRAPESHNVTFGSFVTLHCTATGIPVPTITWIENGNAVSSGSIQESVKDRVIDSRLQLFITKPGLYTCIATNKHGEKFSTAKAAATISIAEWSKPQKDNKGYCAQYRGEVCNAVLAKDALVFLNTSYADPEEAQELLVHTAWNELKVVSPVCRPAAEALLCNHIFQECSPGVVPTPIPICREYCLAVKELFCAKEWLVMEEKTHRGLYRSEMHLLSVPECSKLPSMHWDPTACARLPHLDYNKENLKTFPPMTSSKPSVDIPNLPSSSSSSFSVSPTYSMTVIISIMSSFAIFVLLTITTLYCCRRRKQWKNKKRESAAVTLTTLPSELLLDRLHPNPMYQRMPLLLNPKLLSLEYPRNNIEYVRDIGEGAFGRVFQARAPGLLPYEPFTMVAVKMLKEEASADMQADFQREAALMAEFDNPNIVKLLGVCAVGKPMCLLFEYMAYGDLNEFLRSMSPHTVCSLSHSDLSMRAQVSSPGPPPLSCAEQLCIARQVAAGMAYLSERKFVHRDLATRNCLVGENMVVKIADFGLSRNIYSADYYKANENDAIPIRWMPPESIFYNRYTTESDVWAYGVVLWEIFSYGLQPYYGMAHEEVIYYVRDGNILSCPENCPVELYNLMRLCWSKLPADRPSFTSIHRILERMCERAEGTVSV
Compound,residual activity [1] [%],residual activity [2] [%],residual activity [3] [%],residual activity [4] [%],residual activity [5] [%],residual activity [6] [%],residual activity [7] [%],residual activity [8] [%],residual activity [9] [%],residual activity [10] [%],residual activity [11] [%],residual activity [12] [%],inhibition [13] [%],residual activity [14] [%],residual activity [15] [%],residual activity [16] [%],residual activity [17] [%],residual activity [18] [%],residual activity [19] [%]
CCc1ccccc1C(=O)Nc1n[nH]c2c(C)c(F)c(C3C(C#N)=C(C)N(C)C(C)=C3C#N)cc12 [BAY-3827],100,29,100,62,100,100,100,100,100,100,25,70,8.27,100,82,7.5,63,29,83
CC1=C(C#N)C(c2ccc3c(c2)c(NC(=O)c2ccccc2C)nn3C)C(C#N)=C(C)N1 [BAY-974],85,86,100,52,91,74,92,64,89,93,27,74,6.87,93,98,77,100,97,98
